Reference: ChEMBL document CHEMBL1140736, “High-throughput log P determination by ultraperformance liquid chromatography: a convenient tool for medicinal chemists” (J Med Chem, 2008)

assay: Partition coefficient, log P of the compound; type: physicochemical; conditions: octanol/water

logP | SMILES
3.72 | CCCCN1CCCCC1C(=O)Nc1c(C)cccc1C (stereo not drawn) [BUPIVACAINE]
2.15 | CC(C)NCC(O)COc1ccc(COCCOC(C)C)cc1 (stereo not drawn) [BISOPROLOL]
2.81 | CC(=O)Oc1c(C)cc(OCC(O)CNC(C)C)c(C)c1C (stereo not drawn) [METIPRANOLOL]
2.12 | CCCNC(C)C(=O)Nc1ccccc1C (stereo not drawn) [PRILOCAINE]
3.73 | CC(C)NCC(O)COc1cccc2[nH]c3ccccc3c12 (stereo not drawn) [CARAZOLOL]
2.03 | CCN(CC)CCOC(=O)c1ccc(N)cc1 [PROCAINE]
4.26 | CCCCN(CCCC)CCCOC(=O)c1ccc(N)cc1 [BUTACAINE]
2.51 | C=CCOc1ccccc1OCC(O)CNC(C)C (stereo not drawn) [OXPRENOLOL]
3.39 | CCCCNc1ccc(C(=O)OCCN(C)C)cc1 [TETRACAINE]

SMILES | logP
CCCCOc1cc(C(=O)NCCN(CC)CC)c2ccccc2n1 [DIBUCAINE] | 4.19
CC(C)NCC(O)COc1cccc2[nH]ccc12 (stereo not drawn) [PINDOLOL] | 1.83

assay: Partition coefficient, log P by UPLC method; type: physicochemical; conditions: octanol/water

logP | SMILES
3.8 | CCCCN1CCCCC1C(=O)Nc1c(C)cccc1C (stereo not drawn) [BUPIVACAINE]
2.6 | CC(C)NCC(O)COc1ccc(COCCOC(C)C)cc1 (stereo not drawn) [BISOPROLOL]
3 | CC(=O)Oc1c(C)cc(OCC(O)CNC(C)C)c(C)c1C (stereo not drawn) [METIPRANOLOL]
2.2 | COCCc1ccc(OCC(O)CNC(C)C)cc1 (stereo not drawn) [METOPROLOL]
2.3 | CCCNC(C)C(=O)Nc1ccccc1C (stereo not drawn) [PRILOCAINE]
3.4 | C=CCc1ccccc1OCC(O)CNC(C)C (stereo not drawn) [ALPRENOLOL]
3.4 | CC(C)NCC(O)COc1cccc2[nH]c3ccccc3c12 (stereo not drawn) [CARAZOLOL]
2.1 | CCN(CC)CCOC(=O)c1ccc(N)cc1 [PROCAINE]
2.2 | Cc1cccc(C)c1NC(=O)C1CCCCN1C (stereo not drawn) [MEPIVACAINE]
4.7 | CCCCN(CCCC)CCCOC(=O)c1ccc(N)cc1 [BUTACAINE]
2.6 | C=CCOc1ccccc1OCC(O)CNC(C)C (stereo not drawn) [OXPRENOLOL]

SMILES | logP
CC(C)NCC(O)COc1cccc2[nH]ccc12 (stereo not drawn) [PINDOLOL] | 1.9
